# Test results: the NIST ThermoML archive (doi:10.1021/je3013638)
# ± gives the expanded uncertainty stated by the source.
# Settings: Liquid, Closed cell (Static) method
compound,measurement,setting,value
"Nc1cc(Cl)cc(Cl)c1 [3,5-dichloroaniline]",vapor or sublimation pressure,446.6 K,10.25 ± 0.13 kPa
same,vapor or sublimation pressure,453.88 K,12.95 ± 0.15 kPa
same,vapor or sublimation pressure,457.69 K,14.44 ± 0.17 kPa
same,vapor or sublimation pressure,463.14 K,16.64 ± 0.19 kPa
same,vapor or sublimation pressure,464.4 K,17.2 ± 0.2 kPa
same,vapor or sublimation pressure,466.41 K,18.21 ± 0.22 kPa
same,vapor or sublimation pressure,468.53 K,19.57 ± 0.23 kPa
same,vapor or sublimation pressure,469.09 K,19.87 ± 0.22 kPa
same,vapor or sublimation pressure,470.18 K,20.2 ± 0.23 kPa
same,vapor or sublimation pressure,473.66 K,22.16 ± 0.3 kPa
same,vapor or sublimation pressure,474.48 K,23.01 ± 0.28 kPa
same,vapor or sublimation pressure,475.29 K,23.48 ± 0.26 kPa
same,vapor or sublimation pressure,477.65 K,24.67 ± 0.28 kPa
same,vapor or sublimation pressure,481.31 K,27.19 ± 0.32 kPa
same,vapor or sublimation pressure,484.05 K,29.6 ± 0.33 kPa
same,vapor or sublimation pressure,487.88 K,32.05 ± 0.36 kPa
same,vapor or sublimation pressure,490.85 K,35.09 ± 0.41 kPa
same,vapor or sublimation pressure,492.54 K,36.63 ± 0.41 kPa
same,vapor or sublimation pressure,495.3 K,38.71 ± 0.43 kPa
same,vapor or sublimation pressure,497.31 K,41.11 ± 0.46 kPa
same,vapor or sublimation pressure,500.72 K,44.06 ± 0.49 kPa
same,vapor or sublimation pressure,503.96 K,47.64 ± 0.53 kPa
same,vapor or sublimation pressure,507.34 K,51.52 ± 0.58 kPa
same,vapor or sublimation pressure,509.76 K,55.17 ± 0.62 kPa
same,vapor or sublimation pressure,512.08 K,58.05 ± 0.63 kPa
same,vapor or sublimation pressure,513.94 K,60.01 ± 0.66 kPa
same,vapor or sublimation pressure,516.09 K,63.13 ± 0.71 kPa
same,vapor or sublimation pressure,518.15 K,66.66 ± 0.74 kPa
same,vapor or sublimation pressure,519.82 K,68.55 ± 0.75 kPa
same,vapor or sublimation pressure,521.75 K,71.6 ± 0.81 kPa
same,vapor or sublimation pressure,523.61 K,75.31 ± 0.84 kPa
same,vapor or sublimation pressure,525.72 K,78.65 ± 0.85 kPa
same,vapor or sublimation pressure,528.31 K,82.54 ± 0.91 kPa
same,vapor or sublimation pressure,530.51 K,87.17 ± 0.96 kPa
same,vapor or sublimation pressure,532.9 K,91.08 ± 1 kPa
same,vapor or sublimation pressure,534.94 K,95.84 ± 1.1 kPa
